Experimental data: patent US20180099931A1 (AbbVie S.à.r.l., priority 2016, published 2018)
Like-named read-outs stand apart in the source and are kept apart here.

Biological target: T1, F508delCFTR (Homo sapiens, UniProt P13569, DEL508-508)
T1 construct: expressed in transfected cells; host or cells: CFBE41o- human lung-derived epithelial cells (CFBE4lo-F508delCFTR-HRP), doxycycline-inducible
Assay: Cell Surface Expression-Horse Radish Peroxidase (CSE-HRP) Assay;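 as to Maximum % activity (with co-corrector): co-corrector and positive control are both the same reference corrector at 2 µM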;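 as to Maximum % activity (without co-corrector): percent of the 2 µM on-plate positive control corrector response above DMSO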
Assay type: cell-based
Conditions: for Emax / Maximum % activity (with co-corrector): maximum at any tested concentration, normalized to on-plate positive control; for Emax: read-out: Maximum % activity (without co-corrector)

[1] = test compound without co-corrector
[2] = test compound without co-corrector, read-out: EC50 (without co-corrector)
[3] = with co-corrector (2 μM of 3-[(2R,4R)-4-({[1-(2,2-difluoro-1,3-benzodioxol-5-yl)cyclopropyl]carbonyl}amino)-7-methoxy-3,4-dihydro-2H-chromen-2-yl]benzoic acid)
[4] = with co-corrector (2 μM of 3-[(2R,4R)-4-({[1-(2,2-difluoro-1,3-benzodioxol-5-yl)cyclopropyl]carbonyl}amino)-7-methoxy-3,4-dihydro-2H-chromen-2-yl]benzoic acid), read-out: EC50 (with co-corrector)
[5] = CSE-HRP, test compound without co-corrector, read-out: EC50 (without co-corrector)
[6] = CSE-HRP, with co-corrector (2 μM of 3-[(2R,4R)-4-({[1-(2,2-difluoro-1,3-benzodioxol-5-yl)cyclopropyl]carbonyl}amino)-7-methoxy-3,4-dihydro-2H-chromen-2-yl]benzoic acid), read-out: EC50 (with co-corrector)
[7] = CSE-HRP, with co-corrector (2 μM)

T1 sequence (P13569 with tags, fused parts or gaps DEL508-508): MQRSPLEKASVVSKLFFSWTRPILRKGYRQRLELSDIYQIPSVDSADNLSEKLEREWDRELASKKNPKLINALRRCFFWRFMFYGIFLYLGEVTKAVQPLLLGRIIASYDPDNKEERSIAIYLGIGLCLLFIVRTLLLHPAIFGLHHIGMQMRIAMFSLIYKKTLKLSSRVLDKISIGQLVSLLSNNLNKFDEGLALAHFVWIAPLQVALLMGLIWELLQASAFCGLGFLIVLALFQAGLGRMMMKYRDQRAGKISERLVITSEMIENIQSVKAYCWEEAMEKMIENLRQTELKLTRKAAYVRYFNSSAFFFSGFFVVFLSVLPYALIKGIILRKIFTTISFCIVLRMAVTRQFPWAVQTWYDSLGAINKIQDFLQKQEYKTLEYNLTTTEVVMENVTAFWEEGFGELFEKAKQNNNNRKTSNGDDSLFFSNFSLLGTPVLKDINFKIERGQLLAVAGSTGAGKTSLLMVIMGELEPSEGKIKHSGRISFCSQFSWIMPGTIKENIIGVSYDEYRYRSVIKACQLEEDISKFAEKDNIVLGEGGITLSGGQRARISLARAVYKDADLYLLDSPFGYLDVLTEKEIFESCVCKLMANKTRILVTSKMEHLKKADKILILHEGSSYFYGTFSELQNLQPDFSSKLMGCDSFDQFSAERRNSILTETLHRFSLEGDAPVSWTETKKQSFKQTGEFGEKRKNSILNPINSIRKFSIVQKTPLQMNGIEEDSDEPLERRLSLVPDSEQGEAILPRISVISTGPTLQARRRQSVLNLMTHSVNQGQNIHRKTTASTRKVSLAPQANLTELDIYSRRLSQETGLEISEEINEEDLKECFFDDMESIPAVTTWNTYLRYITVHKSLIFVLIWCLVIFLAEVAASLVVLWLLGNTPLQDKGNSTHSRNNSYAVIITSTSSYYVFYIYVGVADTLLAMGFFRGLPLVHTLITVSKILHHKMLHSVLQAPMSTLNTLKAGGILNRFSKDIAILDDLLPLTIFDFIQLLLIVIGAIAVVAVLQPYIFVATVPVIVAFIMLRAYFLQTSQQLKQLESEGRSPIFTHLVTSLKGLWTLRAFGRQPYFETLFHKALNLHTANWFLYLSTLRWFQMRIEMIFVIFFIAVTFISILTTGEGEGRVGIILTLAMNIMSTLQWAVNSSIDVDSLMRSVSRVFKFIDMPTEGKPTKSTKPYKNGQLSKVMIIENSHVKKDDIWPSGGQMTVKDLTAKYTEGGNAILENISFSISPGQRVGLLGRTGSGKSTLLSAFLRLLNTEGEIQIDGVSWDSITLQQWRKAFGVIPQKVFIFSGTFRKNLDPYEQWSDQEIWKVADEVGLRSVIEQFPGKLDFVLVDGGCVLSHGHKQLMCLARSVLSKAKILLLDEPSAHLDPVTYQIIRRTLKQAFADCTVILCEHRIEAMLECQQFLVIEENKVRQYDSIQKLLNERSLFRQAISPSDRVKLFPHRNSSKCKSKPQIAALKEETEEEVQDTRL

Emax [1] [%] | EC50 [2] [nM] | Maximum % activity (with co-corrector) [3] | EC50 [4] [nM] | Maximum % activity (with co-corrector) (with co-corrector (2 μM)) | Emax (without co-corrector) [%] | EC50 [5] [nM] | EC50 [6] [nM] | Maximum % activity (with co-corrector) [7] | Emax (CSE-HRP, without co-corrector) [%] | SMILES
< 100 | 1000 to 10000 | +++ (≥350) | 1000 to 10000 |  |  |  |  |  |  | COc1ccc(C(F)(F)F)cc1CN[C@H]1[C@H](C(C)(C)C)[C@@H](C(=O)O)N(C(=O)C2CCc3ccc(F)cc3O2)[C@H]1c1ccccc1 (stereo partly drawn) [II-398]
 | 1000 to 10000 |  | 1000 to 10000 | +++ (≥350) | 100 to 200 |  |  |  |  | COc1ccc(C(C)(C)C)cc1CN[C@H]1[C@H](C(C)(C)C)[C@@H](C(=O)O)N(S(=O)(=O)c2ccccc2)[C@H]1c1ccccc1 [Example 15, (2S,3S,4S,5S)-1-(benzenesulfonyl)-3-tert-butyl-4-{[(5-tert-butyl-2-methoxyphenyl)methyl]amino}-5-phenylpyrrolidine-2-carboxylic acid]
 | 1000 to 10000 |  | < 1000 | +++ (≥350) | > 200 |  |  |  |  | COc1ccc(C(C)(C)C)cc1CN[C@H]1[C@H](C(C)(C)C)[C@@H](C(=O)O)N(C(=O)[C@@H]2CCCCO2)[C@H]1c1ccccc1C [Example 110, (2S,3S,4S,5S)-3-tert-butyl-4-{[(5-tert-butyl-2-methoxyphenyl)methyl]amino}-5-(2-methylphenyl)-1-[(2S)-oxane-2-carbonyl]pyrrolidine-2-carboxylic acid]
 | < 1000 |  | < 1000 | +++ (≥350) | > 200 |  |  |  |  | COc1ncc(C2CCC2)cc1CN(C)[C@H]1[C@H](C(C)(C)C)[C@@H](C(=O)O)N(C(=O)[C@@H]2CCCCO2)[C@H]1c1ccccc1C(C)C [Example 119, (2S,3S,4S,5S)-3-tert-butyl-4-{[(5-cyclobutyl-2-methoxypyridin-3-yl)methyl](methyl)amino}-1-[(2S)-oxane-2-carbonyl]-5-[2-(propan-2-yl)phenyl]pyrrolidine-2-carboxylic acid]
> 200 | 1000 to 10000 | +++ (≥350) | < 1000 |  |  |  |  |  |  | C/C=C/CC(C/C=C/C)C(=O)N1[C@H](C(=O)O)[C@@H](C(C)(C)C)[C@H](NCc2cc(C(C)(C)C)ccc2OC)[C@@H]1c1ccccc1 [II-439]
100 to 200 | < 1000 | +++ (≥350) | < 1000 |  |  |  |  |  |  | COc1ccc(C(C)(C)C)cc1CN[C@H]1[C@H](C(C)(C)C)[C@@H](C(=O)O)N(C(=O)[C@@H]2[C@@H](C(F)(F)F)[C@@H]3CC[C@H]2O3)[C@H]1c1ccccc1OC(F)F (relative stereo) [II-507]
< 100 | 1000 to 10000 |  | 1000 to 10000 | ++ (≥150 and <350) |  |  |  |  |  | CC(C)(C)[C@H]1[C@H](Nc2ncccc2OCc2ccccc2)[C@H](c2ccccc2)N(C(=O)C2CCCCC2)[C@@H]1C(=O)O [III-160]
 | 1000 to 10000 |  | < 1000 | +++ (≥350) | > 200 |  |  |  |  | COc1ccc(C(C)C)cc1CN[C@H]1[C@H](C(C)(C)C)[C@@H](C(=O)O)N(C(=O)C2CCCCC2)[C@H]1c1ccc(F)cc1 [Example I-109]
 | 1000 to 10000 |  | 1000 to 10000 | +++ (≥350) | > 200 |  |  |  |  | COc1ccc(C2(C)CCC2)cc1CN[C@H]1[C@H](C(C)(C)C)[C@@H](C(=O)O)N(C(=O)[C@@H]2CCCCO2)[C@H]1c1cccnc1N(C)C [Example 60, (2S,3S,4S,5S)-3-tert-butyl-5-[2-(dimethylamino)pyridin-3-yl]-4-({[2-methoxy-5-(1-methylcyclobutyl)phenyl]methyl}amino)-1-[(2S)-oxane-2-carbonyl]pyrrolidine-2-carboxylic acid]
 |  |  |  |  |  | 1000 to 10000 | 1000 to 10000 | +++ (≥350) | < 100 | Cc1ccc(C)c(CN[C@H]2[C@H](C(C)(C)C)[C@@H](C(=O)O)N(C(=O)C3CCCCC3)[C@H]2c2ccccc2)c1 [II-117]
 |  |  |  |  |  | 1000 to 10000 | < 1000 | +++ (≥350) | 100 to 200 | COc1cc(C(F)(F)F)ccc1CN[C@H]1[C@H](C(C)(C)C)[C@@H](C(=O)O)N(C(=O)OCC(C)C)[C@H]1c1ccccc1 [II-161]
 | > 10000 |  | > 10000 | + (<150) | < 100 |  |  |  |  | COc1cc(C(C)(C)O)ccc1CN[C@H]1[C@H](C(C)(C)C)[C@@H](C(=O)O)N(C(=O)C2CCCCC2)[C@H]1c1ccccc1 [Example I-89]
 |  |  |  |  |  | 1000 to 10000 | 1000 to 10000 | +++ (≥350) | > 200 | COc1ccc(C(C)(C)C)cc1CN[C@H]1[C@H](C(C)(C)C)[C@@H](C(=O)O)N(C(=O)CC2CCCO2)[C@H]1c1ccccc1 (stereo partly drawn) [II-235]
 | 1000 to 10000 |  | < 1000 | +++ (≥350) | > 200 |  |  |  |  | COc1ccc(C(C)(C)C)cc1CN[C@H]1[C@H](C23CC(C2)C3)[C@@H](C(=O)O)N(C(=O)C2CCCCC2)[C@H]1c1ccccc1 [Example I-202]
 |  |  |  |  |  | < 1000 | < 1000 | +++ (≥350) | > 200 | COc1ccc(C2(C)CCC2)cc1CN[C@H]1[C@H](C(C)(C)C)[C@@H](C(=O)O)N(C(=O)[C@@H]2CCCCO2)[C@H]1c1ccccc1C(C)C [Example I-304]
< 100 | 1000 to 10000 |  | 1000 to 10000 | ++ (≥150 and <350) |  |  |  |  |  | COc1ccc(C(F)(F)F)cc1CN[C@@H]1[C@@H](C(C)(C)C)[C@H](C(=O)O)N(C(=O)C2CCCCC2)[C@H]1c1ccccc1 [III-199]
 |  |  |  |  |  | 1000 to 10000 | < 1000 | +++ (≥350) | > 200 | COc1ccc(C(C)C)cc1CN[C@H]1[C@H](C(C)(C)OC)[C@@H](C(=O)O)N(C(=O)C2CCCCC2)[C@H]1c1ccccc1 [II-258]
100 to 200 | 1000 to 10000 | +++ (≥350) | 1000 to 10000 |  |  |  |  |  |  | COc1cc(C(F)(F)F)ccc1CN[C@H]1[C@H](C(C)(C)C)[C@@H](C(=O)O)N(C(=O)CC(C)C)[C@H]1c1ccccc1 [II-558]
> 200 | < 1000 |  | < 1000 | +++ (≥350) |  |  |  |  |  | CCC(CC)Cc1ccc(OC)c(CN[C@H]2[C@H](C(C)(C)C)[C@@H](C(=O)O)N(C(=O)C3CCCCC3)[C@H]2c2ccccc2)c1 [III-170]
 | 1000 to 10000 |  | 1000 to 10000 | +++ (≥350) | > 200 |  |  |  |  | COc1ccc(C(C)(C)C)cc1CN[C@H]1[C@H](C(C)(C)C)[C@@H](C(=O)O)N(C(=O)CC2(O)CCC2)[C@H]1c1ccccc1 [Example I-148]
> 200 | 1000 to 10000 | +++ (≥350) | < 1000 |  |  |  |  |  |  | COc1ncc(C2CCC2)cc1CN[C@H]1[C@H](C(C)(C)C)[C@@H](C(=O)O)N(C(=O)[C@@H]2CCC[C@@H](F)C2)[C@H]1c1ccccc1 [II-532]
< 100 | > 10000 |  | 1000 to 10000 | ++ (≥150 and <350) |  |  |  |  |  | Cc1cc(C(F)(F)F)cc(N[C@@H]2[C@@H](C(C)(C)C)[C@H](C(=O)O)N(C(=O)[C@H]3C[C@H]4CC[C@@H]3C4)[C@@H]2c2ccccc2)n1 (racemic) [III-110]
 |  |  |  |  |  | 1000 to 10000 |  | ++ (≥150 and <350) |  | COc1cc(C(F)(F)F)ccc1CN[C@@H]1[C@@H](C(C)(C)C)[C@H](C(=O)O)N(C(=O)C(C)Oc2ccccc2)[C@@H]1c1ccccc1 (single isomer, unassigned) [II-67]
 | 1000 to 10000 |  | 1000 to 10000 | +++ (≥350) | < 100 |  |  |  |  | CC(C)(C)[C@@H]1[C@@H](Nc2nccc(C(F)(F)F)n2)[C@@H](c2ccccc2)N(C(=O)C2CCCCC2)[C@H]1C(=O)O (racemic) [Example I-5]
 |  |  |  |  |  | 1000 to 10000 | 1000 to 10000 | +++ (≥350) | 100 to 200 | COc1ccc(C(F)(F)F)cc1CN[C@H]1[C@H](C(C)(C)C)[C@@H](C(=O)O)N(C(=O)C2CCCCC2)[C@H]1c1cccnc1C [II-93]
100 to 200 | 1000 to 10000 |  | < 1000 | +++ (≥350) |  |  |  |  |  | COc1ncc(C2CCC2)cc1CN[C@H]1[C@H](C(C)(C)C)[C@@H](C(=O)O)N(C(=O)C2CC(C)CC(C)C2)[C@H]1c1ccccc1 (stereo partly drawn) [III-207]
 | 1000 to 10000 |  | 1000 to 10000 | +++ (≥350) | > 200 |  |  |  |  | COc1ncc(C2CCC2)cc1CN[C@H]1[C@H](C(C)(C)C)[C@@H](C(=O)O)N(C(=O)OC(C)C)[C@H]1c1ccccc1 [Example I-214]
 |  |  |  |  |  | 1000 to 10000 | < 1000 | +++ (≥350) | > 200 | CCn1c(C)c(CC(=O)N2[C@H](C(=O)O)[C@@H](C(C)(C)C)[C@H](NCc3cc(C(C)(C)C)ccc3OC)[C@@H]2c2ccccc2)c2ccccc21 [II-172]
 |  |  |  |  |  | 1000 to 10000 | 1000 to 10000 | ++ (≥150 and <350) | < 100 | COc1ccc(F)c(CN[C@H]2[C@H](C(C)(C)C)[C@@H](C(=O)O)N(C(=O)C3CCCCC3)[C@H]2c2ccccc2)c1 [II-106]
